Earlier results in patent US9670196B2, “Thiazole-substituted aminoheteroaryls as Spleen Tyrosine Kinase inhibitors” (Merck Sharp & Dohme Corp., priority 2013, dated 2017).

Columns and labels:
[1] = dosed intranasally, phase I/II study, allergic rhinitis; cited from earlier work
[2] = phase II clinical trial for allergic rhinitis; cited from earlier work

Compound: Oc1cccc(Nc2ncc(F)c(Nc3cccc(O)c3)n2)c1 [Example R112]
- PGD2 [1]: statistically significant decrease
- clinical safety [1]: safe across a range of indicators
- efficacy versus placebo [2]: lack of efficacy versus placebo
